{"source": "patent US20240025913A1", "about": "“TERTIARY CARBOXAMIDE COMPOUNDS” (Vivace Therapeutics, Inc., priority 2020, published 2024)", "note": "pIC50: −log10 of the molar value."}
{"system": "8×TBD luciferase reporter in HEK293T cells", "test": "YAP Reporter Assay (firefly luciferase)", "type": "cell-based", "conditions": "Homo sapiens, HEK-293T; HEK293T cells stably transfected with 8×TBD luciferase reporter and pRLTK; 24-hr incubation; starting from 3 μM, 1:3 dilution, 10 points", "description": "HEK293T cells stably transfected with 8×TBD luciferase reporter and pRLTK in 384-well plates were treated with the test compounds, starting from 3 μM (final concentration in assay plate), 1:3 dilution, and 10 points in quadruplicates. Post 24-hr incubation with compounds at 37° C. and 5% CO2, cells were lysed and 8×TBD-driven firefly luciferase and control TK-driven renilla luciferase activities were measured using Promega Dual-Luciferase Reporter Assay System.\nReagents: The reagents used for this study are: DMEM: Invitrogen #11960077, Dual-Glo Luciferase Assay System: Promega-E2980, Puromycin Dihydrochloride: Invitrogen-A1113803, 384-well plate: PerkinElmer-6007480, L-GLUTAMINE: Invitrogen-25030164, Hygromycin B: Invitrogen-10687010, and Penicillin-Streptomycin: Merk-TMS-AB2-C\nMedia: The media used for this assay were: Culture Medium: DMEM+1 ug/mL puromycin+200 ug/mL hygromycin (with 10% FBS+1 mM L-glutamine); and Assay Medium: DMEM (with 10% FBS+1 mM L-glutamine+1×P/S).\nCell Plating: The appropriate media was warmed at 37° C. by water bath: Culture Medium, Assay Medium, 1*D-PBS, 0.05% trypsin-EDTA. The cells were trypsinized after removing all media, then washed with 1*sterile D-PBS and then with 2 ml 0.05% trypsin-EDTA. The cells were then incubated at RT for one minute. Then 10 ml/75 cm2 flask Assay Medium was added to each flask. Using a 10 ml pipette, the cells were then gently resuspended in the media, until the clumps completely disappeared. The cells were then transferred into 50 ml centrifuge tubes and were centrifuged at 800 rpm for 5 mins. The medium was removed and the cells were resuspended with Assay Medium. An aliquot of cells was used to count the cell density (cells/ml). The cell suspension was then diluted with Assay Medium to a concentration of 6×10^4 cells/ml. 50 ul cells suspension was then plated to 384-well plate (PerkinElmer-6007480), 3×10^3 cells/well and the cells were incubated in an incubator at 37° C., 5% CO2.\nCompound Treatment: In the afternoon (incubation of the plate with 3-4 hrs), the test compounds were added by Echo, starting from 3 uM (final concentration in the assay plate), 1:3 dilution, 10 points, quadruplicates. The plate was placed at 37° C., 5% CO2 incubator for 24 hrs.\nDetection: The Dual-Glo Luciferase Reagent was prepared by transferring the contents of one bottle of Dual-Glo Luciferase Buffer to one bottle of Dual-Glo Luciferase Substrate to create the Dual-G Luciferase Reagent. Mixing was performed by inversion until the substrate was thoroughly dissolved. After mixing, the reagent was aliquoted into 15 ml tubes. In the afternoon (24 hrs post compound treatment), the DMEM+ medium in the 384 well plates were aspirated by Microplate Washer.\nMeasuring firefly luciferase activity: 20 ul Dual-Glo Luciferase Reagent was added to the 384-well plates. The plates were protected from light to prevent interference with the assay. The plates were shaken for […] followed centrifuging plates at 1000 rpm for 30 seconds. After waiting at least 10 minutes, the firefly luminescence was measured by Envision.\nMeasuring renilla luciferase activity: 20 ul Stop-Glo Reagent was added to the 384-well plates. The plates were shaken for […] and then centrifuged at 1000 rpm for 30 seconds. After waiting at least 10 minutes, the renilla luminescence was measured by Envision.\nCompound IC50 and maximum inhibition on the firefly luciferase and renilla luciferase activities were reported separately."}
{"compound": "CN(C#N)C(=O)c1ccc2c(Oc3ccc(C(F)(F)F)cc3)cccc2c1", "note": "[Compound 43, N-cyano-N-methyl-5-(4-(trifluoromethyl)phenoxy)-2-naphthamide]", "pIC50": "≥ 7.00"}
{"compound": "O=C(c1ccc2c(Oc3ccc(C(F)(F)F)cc3)cccc2c1)N1CC(NCCF)C1", "note": "[Compound 31, (3-((2-Fluoroethyl)amino)azetidin-1-yl)(5-(4-(trifluoromethyl)phenoxy)naphthalen-2-yl)methanone]", "pIC50": "6.00 to 7.00"}
{"compound": "O=C(c1ccc2c(Oc3ccc(C(F)(F)F)cc3)cccc2c1)N1CC(CNCCO)C1", "note": "[Compound 37, (3-(((2-Hydroxyethyl)amino)methyl)azetidin-1-yl)(5-(4-(trifluoromethyl)phenoxy)naphthalen-2-yl)methanone]", "pIC50": "≥ 7.00"}
{"compound": "O=C(c1ccc2c(Oc3ccc(C(F)(F)F)cc3)cccc2c1)N1CC2(CN(CCO)C2)C1", "note": "[Compound 21, (6-(2-Hydroxyethyl)-2,6-diazaspiro[3.3]heptan-2-yl)(5-(4-(trifluoromethyl)phenoxy)naphthalen-2-yl)methanone]", "pIC50": "6.00 to 7.00"}
{"compound": "O=C(c1ccc2c(Oc3ccc(C(F)(F)F)cc3)cccc2c1)N1CC2(CN(CC(F)F)C2)C1", "note": "[Compound 24, (6-(2,2-Difluoroethyl)-2,6-diazaspiro[3.3]heptan-2-yl)(5-(4-(trifluoromethyl)phenoxy)naphthalen-2-yl)methanone]", "pIC50": "6.00 to 7.00"}
{"compound": "O=C(c1ccc2c(Oc3ccc(C(F)(F)F)cc3)cccc2c1)N1CC2(CNC2)C1", "note": "[Compound 11, (2,6-Diazaspiro[3.3]heptan-2-yl)(5-(4-(trifluoromethyl)phenoxy)naphthalen-2-yl)methanone]", "pIC50": "6.00 to 7.00"}
{"compound": "CCNCC1CN(C(=O)c2ccc3c(Oc4ccc(C(F)(F)F)cc4)cccc3c2)C1", "note": "[Compound 33, (3-((Ethylamino)methyl)azetidin-1-yl)(5-(4-(trifluoromethyl)phenoxy)naphthalen-2-yl)methanone]", "pIC50": "6.00 to 7.00"}
{"compound": "NC1CCN(C(=O)c2ccc3c(Oc4ccc(C(F)(F)F)cc4)cccc3c2)C1", "note": "(stereo not drawn) [Compound 3, (3-Aminopyrrolidin-1-yl)(5-(4-(trifluoromethyl)phenoxy)naphthalen-2-yl)methanone]", "pIC50": "6.00 to 7.00"}
{"compound": "O=C(c1ccc2c(Oc3ccc(C(F)(F)F)cc3)cccc2c1)N1CC(CNCCF)C1", "note": "[Compound 36, (3-(((2-Fluoroethyl)amino)methyl)azetidin-1-yl)(5-(4-(trifluoromethyl)phenoxy)naphthalen-2-yl)methanone]", "pIC50": "6.00 to 7.00"}
{"compound": "O=C(c1ccc2c(Oc3ccc(C(F)(F)F)cc3)cccc2c1)N1CC2(C1)CN(c1ccccn1)C2", "note": "[Compound 41, (6-(Pyridin-2-yl)-2,6-diazaspiro[3.3]heptan-2-yl)(5-(4-(trifluoromethyl)phenoxy)naphthalen-2-yl)methanone]", "pIC50": "5.52 to 6.00"}
{"compound": "CC(=O)NC1CN(C(=O)c2ccc3c(Oc4ccc(C(F)(F)F)cc4)cccc3c2)C1", "note": "[Compound 1, N-(1-(5-(4-(Trifluoromethyl)phenoxy)-2-naphthoyl)azetidin-3-yl)acetamide]", "pIC50": "≥ 7.00"}
{"compound": "CNC1CN(C(=O)c2ccc3c(Oc4ccc(C(F)(F)F)cc4)cccc3c2)C1", "note": "[Compound 26, (3-(Methylamino)azetidin-1-yl)(5-(4-(trifluoromethyl)phenoxy)naphthalen-2-yl)methanone]", "pIC50": "6.00 to 7.00"}
